Type in all cases: cell-based
Assay [1] has as its target T1, SMARCA2 (Homo sapiens, UniProt P51531). The assay can be described thus: MSD SMARCA2 degradation in A549 cell line. Conditions: for Dmax: A549, A549 cells; for Dmax / DC50: 24 h; for DC50: read-out: SMARCA2 MSD A549 degradation 24 h: Average external-Abs DC50. An outline of the steps: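 SMARCA2 protein remaining after 24 h exposure of A549 cells (top concentration 1000 nM, 3-fold dilutions) was measured by MSD electrochemiluminescence immunoassay of cell lysates. Results are given as binned DC50 and maximal degradation (Dmax) codes.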

The target of assay [2] is T2, SMARCA4 (Homo sapiens, UniProt P51532).
T2 construct: SMARCA2/SMARCA4 protein degradation selectivity in MV4-11 cells; endogenous in cells; host or cells: MV4-11
Description: SMARCA4 Western blot degradation in MV4-11 cells. The note with it: for Dmax: MV4-11, MV4-11 cells, read-out: SMARCA4 MSD MV411 degradation 24 h: average Dmax %; for Dmax / DC50: 24 h; for DC50: read-out: SMARCA4 MSD MV411 degradation 24 h: Mean external-Abs DC50. Put shortly:
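Protein levels quantified by LI-COR Western blot (beta-actin loading control) in RIPA lysates of MV4-11 cells after 24 h compound exposure. Degradation reported as DC50, Dmax % at 24 h and SMARCA2 vs SMARCA4 selectivity, each binned into letter codes.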
(In western blotting, separated proteins are transferred to a membrane and probed.)

For assay [3], the target named is T1, SMARCA2. Description: SMARCA2 Western blot degradation in MV4-11 cells. Details: SMARCA2/SMARCA4 protein degradation selectivity in MV4-11 cells; endogenous in cells; host or cells: MV4-11. Conditions: for Dmax: MV4-11, MV4-11 cells, read-out: SMARCA2 MSD MV411 degradation 24 h: average Dmax %; for DC50: read-out: SMARCA2 MSD MV411 degradation 24 h: Mean external-Abs DC50; for Selectivity in MV411: SMARCA2/4 selectivity.

A word on the Dmax: it is the greatest extent of degradation seen. In general, DC50 refers to the concentration at which degradation of the target reaches its halfway point.

Each structure is given as a SMILES string. Some results are limits rather than exact numbers.

T1 sequence (P51531 whole entry): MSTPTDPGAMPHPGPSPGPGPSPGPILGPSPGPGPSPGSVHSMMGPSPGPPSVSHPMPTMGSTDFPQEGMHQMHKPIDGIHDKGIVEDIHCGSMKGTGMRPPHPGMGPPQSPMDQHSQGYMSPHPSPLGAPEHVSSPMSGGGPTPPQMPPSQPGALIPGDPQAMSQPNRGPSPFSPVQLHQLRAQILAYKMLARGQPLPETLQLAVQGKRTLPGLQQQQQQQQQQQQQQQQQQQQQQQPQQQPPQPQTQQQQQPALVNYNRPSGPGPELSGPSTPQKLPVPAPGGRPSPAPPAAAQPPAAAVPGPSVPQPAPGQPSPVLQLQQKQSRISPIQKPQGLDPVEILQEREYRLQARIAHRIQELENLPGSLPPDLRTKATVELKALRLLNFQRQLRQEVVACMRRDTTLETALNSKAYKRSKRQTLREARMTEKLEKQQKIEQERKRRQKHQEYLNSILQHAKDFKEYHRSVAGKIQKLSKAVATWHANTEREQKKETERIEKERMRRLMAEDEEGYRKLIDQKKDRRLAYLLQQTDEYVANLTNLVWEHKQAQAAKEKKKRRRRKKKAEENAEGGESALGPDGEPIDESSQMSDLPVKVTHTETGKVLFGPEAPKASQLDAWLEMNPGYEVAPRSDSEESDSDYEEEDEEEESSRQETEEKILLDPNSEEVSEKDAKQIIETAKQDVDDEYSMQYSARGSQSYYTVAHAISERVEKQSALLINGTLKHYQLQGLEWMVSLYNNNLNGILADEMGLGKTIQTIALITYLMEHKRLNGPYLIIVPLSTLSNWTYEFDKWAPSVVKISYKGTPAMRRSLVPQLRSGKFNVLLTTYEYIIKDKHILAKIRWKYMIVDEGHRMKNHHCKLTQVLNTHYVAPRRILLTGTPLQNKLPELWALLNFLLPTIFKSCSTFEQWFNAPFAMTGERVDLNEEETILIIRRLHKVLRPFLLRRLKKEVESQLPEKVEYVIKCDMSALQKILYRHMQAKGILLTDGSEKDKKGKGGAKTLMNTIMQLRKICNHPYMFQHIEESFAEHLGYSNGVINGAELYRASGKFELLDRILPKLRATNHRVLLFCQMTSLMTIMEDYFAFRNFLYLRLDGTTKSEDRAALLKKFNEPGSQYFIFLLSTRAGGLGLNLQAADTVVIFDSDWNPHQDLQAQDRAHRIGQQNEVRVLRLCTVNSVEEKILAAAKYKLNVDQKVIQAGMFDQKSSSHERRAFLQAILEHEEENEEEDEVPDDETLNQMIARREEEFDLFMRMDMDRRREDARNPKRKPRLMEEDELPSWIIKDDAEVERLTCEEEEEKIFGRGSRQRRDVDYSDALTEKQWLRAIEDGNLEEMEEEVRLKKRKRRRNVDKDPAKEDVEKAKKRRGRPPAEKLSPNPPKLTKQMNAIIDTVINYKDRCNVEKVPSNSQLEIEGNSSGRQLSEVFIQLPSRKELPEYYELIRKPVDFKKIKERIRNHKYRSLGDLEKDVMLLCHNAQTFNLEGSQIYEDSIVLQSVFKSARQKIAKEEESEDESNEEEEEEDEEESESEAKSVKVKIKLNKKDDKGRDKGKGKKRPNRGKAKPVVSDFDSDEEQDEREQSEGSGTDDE
T2 sequence (P51532 whole entry): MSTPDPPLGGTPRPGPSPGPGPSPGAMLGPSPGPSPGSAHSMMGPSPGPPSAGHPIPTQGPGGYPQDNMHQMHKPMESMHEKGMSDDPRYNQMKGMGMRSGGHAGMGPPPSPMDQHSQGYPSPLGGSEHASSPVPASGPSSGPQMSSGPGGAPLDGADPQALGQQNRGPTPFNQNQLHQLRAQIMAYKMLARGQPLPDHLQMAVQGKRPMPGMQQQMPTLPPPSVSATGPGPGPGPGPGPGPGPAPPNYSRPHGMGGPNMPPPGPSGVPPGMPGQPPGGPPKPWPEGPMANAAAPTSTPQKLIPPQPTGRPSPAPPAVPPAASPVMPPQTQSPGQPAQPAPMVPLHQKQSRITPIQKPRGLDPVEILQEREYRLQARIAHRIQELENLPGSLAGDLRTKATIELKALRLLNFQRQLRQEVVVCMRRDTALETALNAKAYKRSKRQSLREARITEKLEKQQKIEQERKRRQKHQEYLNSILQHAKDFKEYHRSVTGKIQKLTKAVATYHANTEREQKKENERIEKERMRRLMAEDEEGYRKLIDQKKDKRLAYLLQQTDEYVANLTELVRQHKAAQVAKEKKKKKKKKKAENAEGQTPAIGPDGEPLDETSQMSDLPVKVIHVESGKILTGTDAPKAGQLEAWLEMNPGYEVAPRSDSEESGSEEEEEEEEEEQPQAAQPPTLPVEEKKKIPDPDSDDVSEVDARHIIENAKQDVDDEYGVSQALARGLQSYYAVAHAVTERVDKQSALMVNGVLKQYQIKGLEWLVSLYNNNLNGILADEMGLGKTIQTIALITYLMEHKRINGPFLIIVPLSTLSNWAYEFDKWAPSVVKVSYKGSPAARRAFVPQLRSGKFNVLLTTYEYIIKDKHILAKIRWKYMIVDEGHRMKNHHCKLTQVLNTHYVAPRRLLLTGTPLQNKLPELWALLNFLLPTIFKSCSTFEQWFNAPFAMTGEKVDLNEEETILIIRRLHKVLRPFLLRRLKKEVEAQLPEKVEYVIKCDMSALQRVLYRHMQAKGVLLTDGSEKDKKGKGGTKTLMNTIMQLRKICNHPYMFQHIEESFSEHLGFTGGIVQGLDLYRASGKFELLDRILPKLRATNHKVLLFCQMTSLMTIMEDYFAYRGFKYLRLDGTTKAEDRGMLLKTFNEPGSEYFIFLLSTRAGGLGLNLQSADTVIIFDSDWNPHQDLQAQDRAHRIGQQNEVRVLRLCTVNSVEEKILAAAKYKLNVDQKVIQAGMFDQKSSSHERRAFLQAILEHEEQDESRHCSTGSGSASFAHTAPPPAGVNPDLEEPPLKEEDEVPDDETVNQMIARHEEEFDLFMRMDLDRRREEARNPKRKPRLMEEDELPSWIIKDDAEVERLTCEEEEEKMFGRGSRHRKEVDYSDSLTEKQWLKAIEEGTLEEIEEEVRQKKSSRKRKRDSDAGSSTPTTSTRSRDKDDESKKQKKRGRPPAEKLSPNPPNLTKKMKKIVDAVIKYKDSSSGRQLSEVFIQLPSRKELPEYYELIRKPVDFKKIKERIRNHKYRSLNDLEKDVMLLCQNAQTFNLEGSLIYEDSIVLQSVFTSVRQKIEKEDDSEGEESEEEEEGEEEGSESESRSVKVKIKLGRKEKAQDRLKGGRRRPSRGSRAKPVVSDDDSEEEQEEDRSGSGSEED

Take `C#Cc1ccc(CNC(=O)[C@@H]2C[C@@H](O)CN2C(=O)[C@@H](NC(=O)N2CC3(CC(N4CCC(c5cnc(N6CCc7[nH]c8nnc(-c9ccccc9O)cc8c7[C@@H]6C)nc5)CC4)C3)C2)C(C)(C)C)c(OCCCOC)c1` [I-227]: the Dmax was > 90% in assay [1], > 90% in assay [2] and 70 to 90% in assay [3] (24 h). Besides, the DC50 in assay [1] (A549 cells) is 50 to 100 nM; in assay [2] (MV4-11 cells) it was > 100 nM; in assay [3] (MV4-11 cells, 24 h) it was 10 to 100 nM. Also, the “Selectivity in MV411” value in assay [3] (MV4-11 cells) was “D (D (<10 fold))”.

Consider `C#Cc1ccc(CNC(=O)[C@@H]2C[C@@H](O)CN2C(=O)[C@@H](NC(=O)N2CCC(N3CC4(CC(N5CCC(N6CCc7[nH]c8nnc(-c9ccccc9O)cc8c7[C@H]6C)CC5)C4)C3)CC2)C(C)(C)C)cc1` [I-206], for which the maximal degradation (Dmax) in assay [1] is 70 to 90%; in assay [2], < 50%; in assay [3] (24 h), < 50%. Also, the DC50 in assay [1] (A549 cells) was > 100 nM; in assay [2] (MV4-11 cells) it was > 100 nM; in assay [3] (MV4-11 cells, 24 h), > 100 nM. For the same compound, the “Selectivity in MV411” value in assay [3] (MV4-11 cells) was “C (C (10-100 fold))”.

For `C#Cc1ccc(CNC(=O)[C@@H]2C[C@@H](O)CN2C(=O)[C@@H](NC(=O)N2CC3(CC(N4CCC(N5CCC(N6CCc7[nH]c8nnc(-c9ccccc9O)cc8c7[C@H]6C)CC5)CC4)C3)C2)C(C)(C)C)c(OC)c1` [I-183], the values for the Dmax in assay [1], in assay [2] and in assay [3] (24 h) were > 90%, 70 to 90% and 70 to 90%, respectively. Also, the DC50 in assay [1] (A549 cells) was > 100 nM; in assay [2] (MV4-11 cells) it was > 100 nM; in assay [3] (MV4-11 cells, 24 h) it was 10 to 100 nM. Also, the “Selectivity in MV411” value in assay [3] (MV4-11 cells) is given as “C (C (10-100 fold))”.

With `C#Cc1ccc(CNC(=O)[C@@H]2C[C@@H](O)CN2C(=O)[C@@H](NC(=O)N2CC3(CC(N4CCC(c5cnc(N6CCc7[nH]c8nnc(-c9ccccc9O)cc8c7[C@H]6C)nc5)CC4)C3)C2)C(C)(C)C)c(OCCO)c1` [I-143], the Dmax in assay [1], in assay [2] and in assay [3] (24 h) was > 90% each time. Besides, the DC50 in assay [1] (A549 cells) is < 10 nM; in assay [2] (MV4-11 cells), 10 to 100 nM; in assay [3] (MV4-11 cells, 24 h), 1 to 10 nM. For the same compound, the “Selectivity in MV411” value in assay [3] (MV4-11 cells) is recorded as “C (C (10-100 fold))”.

Regarding `CC#Cc1ccc(CNC(=O)[C@@H]2C[C@@H](O)CN2C(=O)[C@@H](NC(=O)N2CC3(CC(N4CCC(c5cnc(N6CCc7[nH]c8nnc(-c9ccccc9O)cc8c7[C@H]6C)nc5)CC4)C3)C2)C(C)(C)C)c(OC)c1` [I-271], the results for the Dmax in assay [1], in assay [2] and in assay [3] (24 h) were > 90%, < 50% and 70 to 90%, respectively. Besides, the DC50 in assay [1] (A549 cells) was 50 to 100 nM; in assay [2] (MV4-11 cells), > 100 nM; in assay [3] (MV4-11 cells, 24 h), 10 to 100 nM. For the same compound, the “Selectivity in MV411” value in assay [3] (MV4-11 cells) is reported as “C (C (10-100 fold))”.

Regarding `C#Cc1ccc(CNC(=O)[C@@H]2C[C@@H](O)CN2C(=O)[C@@H](NC(=O)N2CC3(CC(N4CCN([C@H]5CC[C@@H](N6CCc7[nH]c8nnc(-c9ccccc9O)cc8c7[C@H]6C)CC5)CC4)C3)C2)C(C)(C)C)cc1` [I-187], the figures for the Dmax in assay [1], in assay [2] and in assay [3] (24 h) were > 90%, 70 to 90% and 70 to 90%, respectively. The DC50 in assay [1] (A549 cells) was 50 to 100 nM; in assay [2] (MV4-11 cells), > 100 nM; in assay [3] (MV4-11 cells, 24 h), 1 to 10 nM. Also, the “Selectivity in MV411” value in assay [3] (MV4-11 cells) is “C (C (10-100 fold))”.

Regarding `C#Cc1ccc(CNC(=O)[C@@H]2C[C@@H](O)CN2C(=O)[C@@H](NC(=O)[C@H]2CC3(C2)C[C@H](N2CCC(N4CCC(N5CCN6c7cc(-c8ccccc8O)nnc7NC[C@H]6C5)CC4)CC2)C3)C(C)(C)C)c(Cl)c1` (single isomer, unassigned) [I-229], the Dmax in assay [1] is > 90%; in assay [2], 50 to 70%; in assay [3] (24 h), 70 to 90%. Also, the DC50 is > 100 nM in assay [1] (A549 cells); > 100 nM in assay [2] (MV4-11 cells); 10 to 100 nM in assay [3] (MV4-11 cells, 24 h). In addition, the “Selectivity in MV411” value in assay [3] (MV4-11 cells) was “B (B (>100-500 fold))”.

For `Cc1ncsc1-c1ccc(CNC(=O)[C@@H]2C[C@@H](O)CN2C(=O)[C@@H](NC(=O)[C@H]2CC3(C2)C[C@H](N2CCC(N4CCC(c5ccc6[nH]c7nnc(-c8ccccc8O)cc7c6c5)CC4)CC2)C3)C(C)(C)C)cc1` (single isomer, unassigned) [I-28], the Dmax was 70 to 90% in assay [1], < 50% in assay [2] and 50 to 70% in assay [3] (24 h). Moreover, the DC50 in assay [1] (A549 cells) was 50 to 100 nM; in assay [2] (MV4-11 cells), > 100 nM; in assay [3] (MV4-11 cells, 24 h), 10 to 100 nM. In addition, the “Selectivity in MV411” value in assay [3] (MV4-11 cells) was “C (C (10-100 fold))”.

As for `C#Cc1ccc(CNC(=O)[C@@H]2C[C@@H](O)CN2C(=O)[C@@H](NC(=O)[C@H]2CC3(C2)C[C@H](N2CCC(N4CCC(N5CCN6c7cc(-c8ccccc8O)nnc7NC[C@H]6C5)CC4)CC2)C3)C(C)(C)C)c(Cl)c1` (single isomer, unassigned) [I-230], in assay [1] (A549 cells), the “SMARCA2 MSD A549 degradation 24 h: Average Dmax %” value is “A (A (>90% degradation))” and the DC50 fell in the range of 10 to 50 nM. Further, in assay [2] (MV4-11 cells), the “SMARCA4 MSD MV411 degradation 24 h: average Dmax %” value is reported as “C (C (50-70% degradation))” and the DC50 is > 100 nM. In assay [3] (MV4-11 cells, 24 h), the “SMARCA2 MSD MV411 degradation 24 h: average Dmax %” value is on record as “B (B (>70-90% degradation))” and the DC50 lay in the range of 1 to 10 nM. Further, in assay [3] (MV4-11 cells), the “Selectivity in MV411” value is “B (B (>100-500 fold))”.

In the case of `C#Cc1ccc(CNC(=O)[C@@H]2C[C@@H](O)CN2C(=O)[C@@H](NC(=O)N2CC3(CC(N4CCC(c5cnc(N6CCc7[nH]c8nnc(-c9ccccc9O)cc8c7[C@@H]6CO)nc5)CC4)C3)C2)C(C)(C)C)cc1` [I-147], the Dmax in assay [1] was > 90%; in assay [2], 70 to 90%; in assay [3] (24 h), > 90%. For the same compound, the DC50 in assay [1] (A549 cells) fell in the range of 50 to 100 nM; in assay [2] (MV4-11 cells), 10 to 100 nM; in assay [3] (MV4-11 cells, 24 h), 1 to 10 nM. Also, in assay [3] (MV4-11 cells), the “Selectivity in MV411” value is “D (D (<10 fold))”.

As to `C#Cc1ccc([C@H](C)NC(=O)[C@@H]2C[C@@H](O)CN2C(=O)[C@@H](NC(=O)N2CC3(CC(N4CCC(c5cnc(N6CCc7[nH]c8nnc(-c9ccccc9O)cc8c7[C@H]6C)nc5)CC4)C3)C2)C(C)(C)C)c(OC)c1` [I-167], the results for the Dmax in assay [1], in assay [2] and in assay [3] (24 h) were > 90%, 70 to 90% and 70 to 90%, respectively. Moreover, the DC50 in assay [1] (A549 cells) is 10 to 50 nM; in assay [2] (MV4-11 cells), > 100 nM; in assay [3] (MV4-11 cells, 24 h), 1 to 10 nM. For the same compound, in assay [3] (MV4-11 cells), the “Selectivity in MV411” value is listed as “C (C (10-100 fold))”.

Turning to `Cc1ncsc1-c1ccc(CNC(=O)[C@@H]2C[C@@H](O)CN2C(=O)[C@@H](NC(=O)C2(F)CC2)C(C)(C)C)c(OCCN2CCC(c3cnc(N4CCN5c6cc(-c7ccccc7O)nnc6NC[C@H]5C4)nc3)CC2)c1` (single isomer, unassigned) [I-32], the Dmax in assay [1], in assay [2] and in assay [3] (24 h) was > 90% each time. Moreover, the DC50 in assay [1] (A549 cells) was < 10 nM; in assay [2] (MV4-11 cells) it was 1 to 10 nM; in assay [3] (MV4-11 cells, 24 h) it was < 1 nM. Moreover, the “Selectivity in MV411” value in assay [3] (MV4-11 cells) is “C (C (10-100 fold))”.

With `C#Cc1ccc(CNC(=O)[C@@H]2C[C@@H](O)CN2C(=O)[C@@H](NC(=O)[C@H]2CC[C@@H](CN3CCC(c4cnc(N5CCN6c7cc(-c8ccccc8O)nnc7NC[C@H]6C5)nc4)CC3)CC2)C(C)(C)C)cc1` [I-293], the Dmax was > 90% in assay [1], 50 to 70% in assay [2] and 70 to 90% in assay [3] (24 h). For the same compound, the DC50 in assay [1] (A549 cells) was 10 to 50 nM; in assay [2] (MV4-11 cells), > 100 nM; in assay [3] (MV4-11 cells, 24 h), 1 to 10 nM. Moreover, the “Selectivity in MV411” value in assay [3] (MV4-11 cells) is given as “B (B (>100-500 fold))”.

(Values after US20250170248A1, “SMARCA DEGRADERS AND USES THEREOF” (Kymera Therapeutics, Inc., priority 2021, published 2025).)
